Measurements from patent US7655643B2, “Antibacterial macrocycles with substituted biphenyl” (AiCuris GmbH & Co. KG, priority 2003, dated 2010).
≈ marks a conversion by molar mass, not a printed value. Where a name gives a salt, the structure may show the parent alone.

Tests used:
S. aureus 133 [1] = experiment: MIC, liquid dilution test (96-well microtitre plate); format: cell-based; details: 18-24 h
Experimental: (§1) The minimum inhibitory concentration (MIC) is the minimum concentration of an antibiotic with which the growth of a test microbe is inhibited over 18-24 h. The inhibitor concentration can in these cases be determined by standard microbiological methods (see, for example, The National Committee for Clinical Laboratory Standards. Methods for dilution antimicrobial susceptibility tests for bacteria that grow aerobically; approved standard-fifth edition. NCCLS document M7-A5 [ISBN 1-56238-394-9]. NCCLS, 940 West Valley Road, Suite 1400, Wayne, Pa. 19087-1898 USA, 2000). The MIC of the compounds of the invention is determined in the liquid dilution test on the 96-well microtitre plate scale. The bacterial microbes are cultivated in a minimal medium (18.5 mM Na2HPO4, 5.7 mM KH2PO4, 9.3 mM NH4Cl, 2.8 mM MgSO4, 17.1 mM NaCl, 0.033 μg/ml thiamine hydrochloride, 1.2 μg/ml nicotinic acid, 0.003 μg/ml biotin, 1% glucose, 25 μg/ml of each proteinogenic amino acid with the exception of phenylalanine; [H.-P. Kroll; unpublished]) with addition of 0.4% BH broth (test medium). In the case of Enterococcus faecium L4001, heat-inactivated fetal calf serum (FCS; GibcoBRL, Germany) is added to the test medium in a final concentration of 10%. Overnight cultures of the test microbes are diluted to an OD578 of 0.001(to 0.01 in the case of enterococci) in fresh test medium, and incubated 1:1 with dilutions of the test substances (1:2 dilution steps) in test medium (200 μl final volume). The cultures are incubated at 37° C. for 18-24 hours; enterococci in the presence of 5% CO2.
(§2) The lowest substance concentration in each case at which bacterial growth was no longer visible is defined as the MIC. […] The compounds show a graded antibacterial effect against most of the test microbes.

S. aureus T17 [2] = experiment: as above; format: cell-based; details: for MIC: Staphylococcus aureus, T17, read-out: MIC S. aureus T17
Experimental: as §1, §2
The S. aureus strain T17 is isolated in vivo. CFW1 mice are infected intraperitoneally with 4×10^7 S. aureus 133 cells per mouse. 0.5 h after the infection, the animals are treated intravenously with 50 mg/kg biphenomycin B. The kidneys are removed from the surviving animals on day 3 after the infection. After homogenization of the organs, the homogenates are plated out as described for RN4220Bi^R on antibiotic-free and antibiotic-containing agar plates and incubated at 37° C. overnight. […] About 20 of these colonies are tested for the biphenomycin B MIC, and a colony with an MIC of >50 μM is selected for further cultivation, and the strain is referred to as T17.

E. faecium L4001 [3] = experiment: as above; format: cell-based, Enterococcus faecium
Experimental: as §1, §2

[4] = molecular target: S. aureus 133 Translation; experiment: S. aureus in vitro transcription-translation assay (firefly luciferase, S30 extract); format: biochemical
Excerpt: In order to construct a reporter plasmid which can be used in an in vitro transcription -translation assay from S. aureus the plasmid pBESTluc (Promega Corporation, USA) is used. The E. coli tac promoter present in this plasmid in front of the firefly luciferase is replaced by the capA1 promoter with appropriate Shine-Dalgarno sequence from S. aureus. The primers CAPFor 5′-[…] -[…]-3′ and CAPRev 5′-[…]-3′ are used for this. The primer CAPFor contains the capA1 promoter, the ribosome binding site and the 5′ region of the luciferase gene. After PCR using pBESTluc as template it is possible to isolate a PCR product which contains the firefly luciferase gene with the fused capA1 promoter. This is, after restriction with ClaI and HindIII, ligated into the vector pBESTluc which has likewise been digested with ClaI and HindIII. The resulting plasmid pla can be replicated in E. coli and be used as template in the S. aureus in vitro transcription-translation assay.
Six liters of BHI medium are inoculated with a 250 ml overnight culture of a S. aureus strain and allowed to grow at 37° C. until the OD600 nm is 2-4. The cells are harvested by centrifugation and washed in 500 ml of cold buffer A (10 mM Tris acetate, pH 8.0, 14 mM magnesium acetate, 1 mM DTT, 1 M KCl). After renewed centrifugation, the cells are washed in 250 ml of cold buffer A with 50 mM KCl, and the resulting pellets are frozen at −20° C. for 60 min. The pellets are thawed on ice in 30 to 60 min and taken up to a total volume of 99 ml in buffer B (10 mM Tris acetate, pH 8.0, 20 mM magnesium acetate, 1 mM DTT, 50 mM KCl). 1.5 ml lysostaphin (0.8 mg/ml) in buffer B are introduced into 3 precooled centrifuge cups each and each mixed with 33 ml of the cell suspension. The samples are incubated at 37° C., shaking occasionally, for 45 to 60 min, before 150 μl of a 0.5 M DTT solution are added. The lysed cells are centrifuged at 30 000×g and 4° C. for 30 min. The cell pellet is taken up in buffer B and then centrifuged again under the same conditions, and the collected supernatants are combined. The supernatants are centrifuged again under the same conditions, and 0.25 volumes of buffer C (670 mM Tris acetate, pH 8.0, 20 mM magnesium acetate, 7 mM Na3 phosphoenolpyruvate, 7 mM DTT, 5.5 mM ATP, 70 μM amino acids (complete from Promega), 75 μg of pyruvate kinase (Sigma, Germany)/ml are added to the upper ⅔ of the supernatant. The samples are incubated at 37° C. for 30 min. The supernatants are dialysed against 21 of dialysis buffer (10 mM Tris acetate, pH 8.0, 14 mM magnesium acetate, 1 mM DTT, 60 mM potassium acetate) in a dialysis tube with a 3500 Da cut-off with one buffer change at 4° C. overnight. The dialysate is concentrated to a protein concentration of about 10 mg/ml by covering the dialysis tube with cold PEG 8000 powder (Sigma, Germany) at 4° C. The S30 extracts can be stored in aliquots at −70° C.
Inhibition of protein biosynthesis of the compounds can be shown in an in vitro transcription-translation assay. The assay is based on the cell-free transcription and translation of firefly luciferase using the reporter plasmid pla as template and cell-free S30 extracts obtained from S. aureus. The activity of the resulting luciferase can be detected by luminescence measurement.
The amount of S30 extract or plasmid plato be employed must be tested anew for each preparation in order to ensure an optimal concentration in the assay. 3 μl of the substance to be tested, dissolved in 5% DMSO, are introduced into an MTP. Then 10 μl of a suitably concentrated plasmid solution p1 a are added. Then 46 μl of a mixture of 23 μl of premix (500 mM Potassium acetate, 87.5 mM Tris acetate, pH 8.0, 67.5 mM ammonium acetate, 5 mM DTT, 50 μg of folic acid/ml, 87.5 mg of PEG 8000/ml, 5 mM ATP, 1.25 mM each NTP, 20 μM each amino acid, 50 mM PEP (Na3 salt), 2.5 mM cAMP, 250 μg each E. coli tRNA/ml) and 23 μl of a suitable amount of S. aureus S30 extract are added and mixed. […]

S. aureus 133 [5] = experiment: MIC, alternative method, agar dilution test; format: cell-based
Experimental: (§3) The minimum inhibitory concentration (MIC) is the minimum concentration of an antibiotic with which the growth of a test microbe is inhibited over 18-24 h. The inhibitor concentration can be determined by standard microbiological methods using modified medium in an agar dilution test (see, for example, the National Committee for Clinical Laboratory Standards. Methods for dilution antimicrobial susceptibility tests for bacteria that grow aerobically; approved standard-fifth edition. NCCLS document M7-A5 [ISBN 1-56238-394-9]. NCCLS, 940 West Valley Road, Suite 1400, Wayne, PA. 19087-1898 USA, 2000). The bacterial microbes are cultivated on 1.5% agar plates containing 20% defibrinated horse blood. The test microbes, which are incubated on Columbia blood agar plates (Becton-Dickinson) overnight, are diluted in PBS, adjusted to a microbe count of about 5×10^5 microbes/ml and placed as drops (1-3 μl) on test plates. The test substances contain various dilutions of the test substances (1:2 dilution stages). The cultures are incubated at 37° C. in the presence of 5% CO2 for 18-24 hours.
(§4) The lowest concentration of each substance at which no visible bacterial growth occurs is defined as the MIC and is reported in μg/ml.

S. aureus T17 [6] = experiment: MIC, alternative method, agar dilution test; format: cell-based; details: for MIC: Staphylococcus aureus
Experimental: as §3, §4

E. faecium L4001 [7] = experiment: MIC, alternative method, agar dilution test; format: cell-based, Enterococcus faecium; details: for MIC: Enterococcus faecium
Experimental: as §3, §4

S. aureus RN4220Bi^R = experiment: Biphenomycin B MIC of the isolated resistant colony; format: cell-based; details: colony isolated in vitro
Experimental: The S. aureus strain RN422OBi^R is isolated in vitro. […] Whereas about 1×10^7 cells grow on the antibiotic-free plate, about 100 colonies grow on the antibiotic-containing plate, corresponding to a resistance rate of 1×10^−5. Some of the colonies grown on the antibiotic-containing plate are tested for the biphenomycin B MIC. One colony with an MIC of >50 μM is selected for further use, and the strain is referred to as RN4220Bi^R.

[8] = agar dilution, 1.5% agar with 20% defibrinated horse blood, 5% CO2, 18-24 h
[9] = Staphylococcus aureus, 133, minimal medium + 0.4% BH broth
[10] = Enterococcus faecium, L4001, liquid dilution, test medium with 10% FCS, 5% CO2, 18-24 h, read-out: MIC E. faecium L4001
[11] = Staphylococcus aureus, 133, agar dilution, 1.5% agar with 20% defibrinated horse blood, 5% CO2, 18-24 h, read-out: MIC S. aureus 133
[12] = T17, agar dilution, 1.5% agar with 20% defibrinated horse blood, 5% CO2, 18-24 h, read-out: MIC S. aureus T17
[13] = L4001, agar dilution, 1.5% agar with 20% defibrinated horse blood, 5% CO2, 18-24 h, read-out: MIC E. faecium L4001

Row | SMILES | MIC (S. aureus 133 [1]; minimal medium + 0.4% BH broth) [µM] | MIC, selected colony T17 (S. aureus T17 [2]; colony isolated in vivo from mouse kidney) [µM] | MIC S. aureus T17 (S. aureus T17 [2]; liquid dilution, biphenomycin-resistant strain, 18-24 h) [µM] | MIC (E. faecium L4001 [3]; liquid dilution, test medium with 10% FCS, 5% CO2, 18-24 h, read-out: MIC E. faecium L4001) [µM] | IC50 ([4]; Table A) [µM] | IC50 ([4]; Table B) [µM] | MIC S. aureus 133 (S. aureus 133 [5]; [8]) [mg/L] | MIC S. aureus T17 (S. aureus T17 [6]; [8]) [mg/L] | MIC E. faecium L4001 (E. faecium L4001 [7]; [8]) [mg/L] | MIC, selected colony RN4220Bi^R (S. aureus RN4220Bi^R) [µM] | MIC (S. aureus 133 [1]; [9]) [µM] | MIC (S. aureus T17 [2]) [µM] | MIC (E. faecium L4001 [3]; [10]) [µM] | MIC (S. aureus 133 [5]; [11]) [mg/L] | MIC (S. aureus T17 [6]; [12]) [mg/L] | MIC (E. faecium L4001 [7]; [13]) [mg/L] | MIC (E. faecium L4001 [3]; Enterococcus faecium, L4001, read-out: MIC E. faecium L4001) [µM] | MIC (S. aureus 133 [5]; Staphylococcus aureus, 133, read-out: MIC S. aureus 133) [mg/L] | MIC (S. aureus T17 [6]; T17, read-out: MIC S. aureus T17) [mg/L] | MIC (E. faecium L4001 [7]; L4001, read-out: MIC E. faecium L4001) [mg/L]
1 | NC[C@H](O)C[C@@H]1NC(=O)[C@@H](N)Cc2cc(ccc2O)-c2ccc(O)c(c2)C[C@@H](C(=O)O)NC1=O [Biphenomycin B, biphenomycin B, reference compound] | 0.1 | > 50 | >25 | >25 | 1.5 | 1.5 | <0.03 | >32 | 0.5 (≈ 1.06 µM) | > 50 | – | – | – | – | – | – | – | – | – | –
2 | CN1C(=O)[C@H](C[C@@H](O)CN)NC(=O)[C@@H](N)Cc2cc(ccc2O)-c2ccc(Cl)c(c2)C[C@H]1C(=O)NCC(O)CN (stereo partly drawn) [Example 9] | – | – | – | – | 0.3 | 0.3 | – | – | – | – | 0.35 | 0.7 (≈ 0.404 µg/mL) | 11 (≈ 6.35 µg/mL) | 2 (≈ 3.47 µM) | 4 (≈ 6.93 µM) | 16 (≈ 27.7 µM) | – | – | – | –
3 | NCCNC(=O)[C@@H]1Cc2cc(ccc2F)-c2ccc(O)c(c2)C[C@H](N)C(=O)N[C@@H](C[C@@H](O)CN)C(=O)N1 [Example 12] | – | – | – | – | 0.8 | 0.8 | – | – | – | – | 0.16 | 0.6 (≈ 0.31 µg/mL) | 20 (≈ 10.3 µg/mL) | 1 (≈ 1.94 µM) | 1 (≈ 1.94 µM) | 16 (≈ 31 µM) | – | – | – | –
4 | NCCNC(=O)[C@@H]1Cc2cccc(c2)-c2ccc(O)c(c2)C[C@H](N)C(=O)N[C@@H](C[C@@H](O)CN)C(=O)N1 [Example 36, (8S,11S,14S)-14-Amino-N-(2-aminoethyl)-11-[(2R) -3-amino-2-hydroxypropyl]-17-hydroxy-10,13-dioxo-9,12-diazatricyclo-[14.3.1.1^2,6]henicosa-1(20),2(21),3,5,16,18-hexaene-8-carboxamide tri(hydrotrifluoroacetate)] | – | – | – | – | 0.36 | 0.36 | – | – | – | – | 0.4 | 0.8 (≈ 0.399 µg/mL) | – | 1 (≈ 2.01 µM) | 2 (≈ 4.01 µM) | 8 (≈ 16 µM) | > 25 | – | – | –
5 | CN1C(=O)[C@H](CCCN)NC(=O)[C@@H](N)Cc2cc(ccc2O)-c2ccc(Cl)c(c2)C[C@H]1C(=O)NCCN(CCN)CCN [Example 42, (8S,11S,14S)-14-Amino-11-(3-aminopropyl)-N-{2-[bis(2-aminoethyl)amino]ethyl}-5-chloro-17-hydroxy-9-methyl-10,13-dioxo-9,12-diazatricyclo[14.3.1.1^2,6]henicosa-1(20),2(21)3,5,16,18-hexaene-8-carboxamide penta(hydrotrifluoroacetate)] | – | – | – | – | – | 0.08 | – | – | – | – | – | – | – | 2 (≈ 3.24 µM) | 2 (≈ 3.24 µM) | 32 (≈ 51.8 µM) | – | – | – | –
6 | NCCC[C@@H]1NC(=O)[C@@H](N)Cc2cc(ccc2O)-c2ccc(N)c(c2)C[C@@H](C(=O)NCCN)NC1=O [Example 43, (8S,11S,14S)-5,14-Diamino-N-(2-aminoethyl)-11-(3-aminopropyl)-17-hydroxy-10,13-dioxo-9,12-diazatricyclo[14.3.1.1^2,6]henicosa-1(20),2(21),3,5,16,18-hexaene-8-carboxamide tetrahydrochloride] | – | – | – | – | – | 0.9 | – | – | – | – | – | – | – | – | – | – | – | 2 | 4 | > 32
